The text below walks through data of patent US12661410B2, “Compounds for targeted degradation of RET” (C4 Therapeutics, Inc., priority 2020, dated 2026).

The target in one experiment is T1, RET(KD: 658-1114 G810R) (Homo sapiens, UniProt P07949, G810R).
T1 construct: 658-1114; expressed in transfected cells; host or cells: 293T.165 (293T cells, generated in-house)
T1 sequence (P07949 658-1114 G810R): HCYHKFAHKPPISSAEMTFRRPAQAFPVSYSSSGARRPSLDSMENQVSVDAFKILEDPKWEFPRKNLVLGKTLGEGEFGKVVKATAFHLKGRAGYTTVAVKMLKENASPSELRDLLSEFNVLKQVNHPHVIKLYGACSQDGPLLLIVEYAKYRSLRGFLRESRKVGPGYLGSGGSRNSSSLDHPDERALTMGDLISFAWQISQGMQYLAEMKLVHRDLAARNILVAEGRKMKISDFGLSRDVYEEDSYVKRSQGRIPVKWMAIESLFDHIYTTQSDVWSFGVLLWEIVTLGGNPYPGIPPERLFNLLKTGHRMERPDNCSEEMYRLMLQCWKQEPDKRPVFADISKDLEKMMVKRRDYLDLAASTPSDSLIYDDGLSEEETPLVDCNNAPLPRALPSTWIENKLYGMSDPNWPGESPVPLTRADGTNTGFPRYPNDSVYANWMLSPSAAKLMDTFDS
Nature of the experiment: HiBiT-Degradation, RET G810R degradation assay (Nano-Glo HiBiT Lytic), 293T.165 cells. Type of experiment: cell-based. The settings on record: for Emax / DC50: 6.0 hours; for Emax: % remaining protein, read-out: 293T.165 RET(KD: 658-1114 G810R) 6.0 hours (Emax); for DC50: read-out: 293T.165 RET(KD: 658-1114 G810R) 6.0 hours (DC50). In outline: (§1)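 HEK293T lines stably expressing HiBiT-tagged RET kinase domain (WT: 293T.144; G810R: 293T.165) were treated with degraders for 6 h in duplicate, 11-point half-log series from 10 μM top dose. Lysis with Nano-Glo HiBiT Lytic reagent, luminescence read; DC50 and Emax (% remaining protein) derived from dose-response curves.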

The target in the next experiment is T2, RET (658-1114) (Homo sapiens, UniProt P07949).
T2 construct: 658-1114; expressed in transfected cells; host or cells: 293T.144 (293T cells, generated in-house)
T2 sequence (P07949 658-1114): T1 sequence (P07949 658-1114 G810R) with R153G
Nature of the experiment: HiBiT-Degradation, RET wild-type degradation assay (Nano-Glo HiBiT Lytic), 293T.144 cells. Type of experiment: cell-based. The note with it: for Emax / DC50: 6.0 hours; for Emax: read-out: 293T.144 RET (658-1114) 6.0 hours (Emax); for DC50: read-out: 293T.144 RET (658-1114) 6.0 hours (DC50). The essentials:
as §1

[1] abbreviates: half-maximal degradation concentration.

SMILES strings stand for the structures. Changes are numbered by the printed parent chain. Where two headings read alike, the source gives them in different places.

Turning to `CCC1(C(=O)Nc2ccc(F)cc2)CCN(c2ccc(-c3nc(-c4cnn(C5CCN(C(=O)CC6(O)CCN(c7ccc(NC8CCC(=O)NC8=O)cc7F)CC6)CC5)c4)cn4ncc(C#N)c34)cn2)CC1` (centres unmarked) [Compound 101, 1-[5-[3-cyano-6-[1-[1-[2-[1-[4-[(2,6-dioxo-3-piperidyl)amino]-2-fluoro-phenyl]-4-hydroxy-4-piperidyl]acetyl]-4-piperidyl]pyrazol-4-yl]pyrazolo[1,5-a]pyrazin-4-yl]-2-pyridyl]-4-ethyl-N-(4-fluorophenyl)piperidine-4-carboxamide], the “293T.165 RET(KD: 658-1114 G810R) 6.0 hours (IP) [nM]” value on RET(KD: 658-1114 G810R) is recorded as “++++ (<50 nM = ++++)”. Moreover, the Emax at RET(KD: 658-1114 G810R) and on RET (658-1114) (% remaining protein) was under 30% throughout. For the same molecule, the half-maximal degradation concentration (DC50) at RET(KD: 658-1114 G810R) (setting [1]) and on RET (658-1114) (setting [1]) was under 50 nM throughout. For the same molecule, the “293T.144 RET (658-1114) 6.0 hours (IP) [nM]” value (“293T.144 RET” for short) on RET (658-1114) is “++++ (<50 nM = ++++)”.
`COc1cc(N2CCN([C@H]3CC[C@H](n4cc(-c5cn6ncc(C#N)c6c(-c6ccc(N7C[C@@H]8[C@@H](CNC(=O)c9ncccc9Cl)[C@@H]8C7)nc6)n5)cn4)CC3)CC2)c(F)cc1NC1CCC(=O)NC1=O` (stereo partly drawn) [Compound 168, 3-chloro-N-[[(1S,5R)-3-[5-[3-cyano-6-[1-[4-[4-[4-[(2,6-dioxo-3-piperidyl)amino]-2-fluoro-5-methoxy-phenyl]piperazin-1-yl]cyclohexyl]pyrazol-4-yl]pyrazolo[1,5-a]pyrazin-4-yl]-2-pyridyl]-3-azabicyclo[3.1.0]hexan-6-yl]methyl]pyridine-2-carboxamide]: at RET(KD: 658-1114 G810R), the “293T.165 RET(KD: 658-1114 G810R) 6.0 hours (IP) [nM]” value was “++++ (<50 nM = ++++)”. The maximal response (Emax) on RET(KD: 658-1114 G810R) and on RET (658-1114) (% remaining protein) was under 30% each time. For the same molecule, the DC50 is under 100 nM on RET(KD: 658-1114 G810R) (setting [1]) and under 50 nM on RET (658-1114) (setting [1]). The “293T.144 RET” value on RET (658-1114) is on record as “++++ (<50 nM = ++++)”.
For the molecule `Cn1nc(N2CCC(=O)NC2=O)c2cc(F)c(N3CCN([C@H]4CC[C@@H](n5cc(-c6cn7ncc(C#N)c7c(-c7ccc(N8C[C@H]9COC[C@@H](C8)N9Cc8ccc(=O)[nH]c8)nc7)n6)cn5)CC4)CC3)cc21` (single isomer, unassigned) [Compound 153], on RET(KD: 658-1114 G810R), the “293T.165 RET(KD: 658-1114 G810R) 6.0 hours (IP) [nM]” value is on record as “++++ (<50 nM = ++++)”. For the same molecule, the Emax at RET(KD: 658-1114 G810R) and on RET (658-1114) (% remaining protein) was under 30% in each case. The DC50 on RET(KD: 658-1114 G810R) (setting [1]) was under 100 nM; at RET (658-1114) (setting [1]), under 50 nM. For the same molecule, on RET (658-1114), the “293T.144 RET” value is reported as “++++ (<50 nM = ++++)”.
For the molecule `N#Cc1cnn2cc(-c3cnn([C@H]4CC[C@H](N5CCC(c6ccc(NC7CCC(=O)NC7=O)cc6F)CC5)CC4)c3)nc(-c3ccc(N4CCC5(CC4)OCc4cccnc45)nc3)c12` (single isomer, unassigned) [Compound 148, 4-(6-(5H-Spiro[furo[3,4-b]pyridine-7,4′-piperidin]-1′-yl)pyridin-3-yl)-6-(1-((1r, 4r)-4-(4-(4-((2,6-dioxopiperidin-3-yl)amino)-2-fluorophenyl)piperidin-1-yl)cyclohexyl)-1H-pyrazol-4-yl)pyrazolo[1,5-a]pyrazine-3-carbonitrile], the “293T.165 RET(KD: 658-1114 G810R) 6.0 hours (IP) [nM]” value on RET(KD: 658-1114 G810R) is on record as “++++ (<50 nM = ++++)”. The Emax on RET(KD: 658-1114 G810R) and on RET (658-1114) (% remaining protein) was under 30% each time. Also, the 50% degradation concentration (DC50) at RET(KD: 658-1114 G810R) (setting [1]) and at RET (658-1114) (setting [1]) was under 50 nM each time. Also, the “293T.144 RET” value on RET (658-1114) is given as “++++ (<50 nM = ++++)”.
With `N#Cc1cnn2cc(-c3cnn(C4CCN(C(=O)CC5(O)CCN(c6ccc(NC7CCC(=O)NC7=O)cc6F)CC5)CC4)c3)nc(-c3ccc(N4CCN(C(=O)C5CCC5)CC4)nc3)c12` (centres unmarked) [Compound 112, 4-[6-[4-(cyclobutanecarbonyl)piperazin-1-yl]-3-pyridyl]-6-[1-[1-[2-[1-[4-[(2,6-dioxo-3-piperidyl)amino]-2-fluoro-phenyl]-4-hydroxy-4-piperidyl]acetyl]-4-piperidyl]pyrazol-4-yl]pyrazolo[1,5-a]pyrazine-3-carbonitrile], the “293T.165 RET(KD: 658-1114 G810R) 6.0 hours (IP) [nM]” value on RET(KD: 658-1114 G810R) is “++++ (<50 nM = ++++)”. Also, the maximum response (Emax) on RET(KD: 658-1114 G810R) is under 50%; on RET (658-1114) (% remaining protein), under 30%. For the same molecule, the DC50 on RET(KD: 658-1114 G810R) (setting [1]) and on RET (658-1114) (setting [1]) was under 50 nM in each case. In addition, the “293T.144 RET” value on RET (658-1114) is listed as “++++ (<50 nM = ++++)”.
With `N#Cc1cnn2cc(-c3ccc(N4CCN(C(=O)CC5(O)CCN(c6ccc(NC7CCC(=O)NC7=O)cc6)CC5)CC4)cc3)cc(-c3ccc(N4CCN(C(=O)Cc5ccc(F)cn5)CC4)nc3)c12` (centres unmarked) [Compound 49, 6-[4-[4-[2-[1-[4-[(2,6-dioxo-3-piperidyl)amino]phenyl]-4-hydroxy-4-piperidyl]acetyl]piperazin-1-yl]phenyl]-4-[6-[4-[2-(5-fluoro-2-pyridyl)acetyl]piperazin-1-yl]-3-pyridyl]pyrazolo[1,5-a]pyridine-3-carbonitrile], at RET(KD: 658-1114 G810R), the maximal effect (Emax) is under 50%. At RET(KD: 658-1114 G810R) (setting [1]), the 50% degradation concentration (DC50) was under 100 nM. On RET(KD: 658-1114 G810R) (HiBiT-Degradation), the “293T.165 RET(KD: 658-1114 G810R) 6.0 hours (Emax)” value is “+++ (<50% = +++)”, the “293T.165 RET(KD: 658-1114 G810R) 6.0 hours (IP) [nM]” value is reported as “++++ (< 50 nM = ++++)” and the 50% degradation concentration (DC50) is under 100 nM. Also, at RET (658-1114) (HiBiT-Degradation), the “293T.144 RET” value is on record as “++++ (< 50 nM = ++++)”, the DC50 was under 50 nM and the maximal effect (Emax) is under 30%.
Turning to `CCC1(C(=O)NC(C)C)CCN(c2ccc(-c3cc(-c4cnn([C@H]5CC[C@H](N6CCC(c7ccc(N[C@@H]8CCC(=O)NC8=O)cc7F)CC6)CC5)c4)cn4ncc(C#N)c34)cn2)CC1` (single isomer, unassigned) [Compound 195], the “293T.165 RET(KD: 658-1114 G810R) 6.0 hours (IP) [nM]” value on RET(KD: 658-1114 G810R) is given as “++++ (<50 nM = ++++)”. Besides, the Emax at RET(KD: 658-1114 G810R) and at RET (658-1114) (% remaining protein) was under 30% each time. Besides, the DC50 on RET(KD: 658-1114 G810R) (setting [1]) and on RET (658-1114) (setting [1]) was under 50 nM throughout. For the same molecule, the “293T.144 RET” value at RET (658-1114) is on record as “++++ (<50 nM = ++++)”.
With `CCC1(C(=O)NC2CCC2)CCN(c2ccc(-c3nc(-c4cnn([C@H]5CC[C@H](N6CCC(c7ccc(N[C@H]8CCC(=O)NC8=O)cc7Cl)CC6)CC5)c4)cn4ncc(C#N)c34)cn2)CC1` (single isomer, unassigned) [Compound 130], on RET(KD: 658-1114 G810R), the “293T.165 RET(KD: 658-1114 G810R) 6.0 hours (IP) [nM]” value was “++++ (<50 nM = ++++)”. Further, the Emax at RET(KD: 658-1114 G810R) and on RET (658-1114) (% remaining protein) was under 30% each time. The DC50 on RET(KD: 658-1114 G810R) (setting [1]) and at RET (658-1114) (setting [1]) was under 50 nM each time. The “293T.144 RET” value at RET (658-1114) is “++++ (<50 nM = ++++)”.
`CCC1(c2ncccn2)CCN(c2ccc(-c3nc(-c4cnn([C@H]5CC[C@H](N6CCC(c7ccc(N[C@H]8CCC(=O)NC8=O)cc7F)CC6)CC5)c4)cn4ncc(C#N)c34)cn2)CC1` (single isomer, unassigned) [Compound 139]: the “293T.165 RET(KD: 658-1114 G810R) 6.0 hours (IP) [nM]” value at RET(KD: 658-1114 G810R) is reported as “++++ (<50 nM = ++++)”. In addition, the Emax on RET(KD: 658-1114 G810R) and at RET (658-1114) (% remaining protein) was under 30% throughout. Moreover, the DC50 at RET(KD: 658-1114 G810R) (setting [1]) and at RET (658-1114) (setting [1]) was under 50 nM in each case. For the same molecule, the “293T.144 RET” value at RET (658-1114) is “++++ (<50 nM = ++++)”.

In general, Emax refers to the greatest response seen or fitted, relative to the assay's reference. Broadly, the DC50 is the concentration at which degradation of the target reaches its halfway point.
